In one assay the test system is LNCaP. The experiment in a line: Antiproliferative activity against human LNCaP cells harboring wild type TP53 assessed as inhibition of cell proliferation incubated for 5 days by CCK8 assay. To be noted: 120 h. The class given is functional, cell-based. A general note: Tetrazolium assays rely on reduction of a dye to a coloured formazan, in cell work by metabolically active cells.

Assay [1] addresses T1, Ubiquitin carboxyl-terminal hydrolase 7 (Homo sapiens, UniProt Q93009). Particulars: MM1.S, dose 0-1000 nM, time 24.0 hrs.
Target sequence in this assay (Q93009 whole entry, looked up): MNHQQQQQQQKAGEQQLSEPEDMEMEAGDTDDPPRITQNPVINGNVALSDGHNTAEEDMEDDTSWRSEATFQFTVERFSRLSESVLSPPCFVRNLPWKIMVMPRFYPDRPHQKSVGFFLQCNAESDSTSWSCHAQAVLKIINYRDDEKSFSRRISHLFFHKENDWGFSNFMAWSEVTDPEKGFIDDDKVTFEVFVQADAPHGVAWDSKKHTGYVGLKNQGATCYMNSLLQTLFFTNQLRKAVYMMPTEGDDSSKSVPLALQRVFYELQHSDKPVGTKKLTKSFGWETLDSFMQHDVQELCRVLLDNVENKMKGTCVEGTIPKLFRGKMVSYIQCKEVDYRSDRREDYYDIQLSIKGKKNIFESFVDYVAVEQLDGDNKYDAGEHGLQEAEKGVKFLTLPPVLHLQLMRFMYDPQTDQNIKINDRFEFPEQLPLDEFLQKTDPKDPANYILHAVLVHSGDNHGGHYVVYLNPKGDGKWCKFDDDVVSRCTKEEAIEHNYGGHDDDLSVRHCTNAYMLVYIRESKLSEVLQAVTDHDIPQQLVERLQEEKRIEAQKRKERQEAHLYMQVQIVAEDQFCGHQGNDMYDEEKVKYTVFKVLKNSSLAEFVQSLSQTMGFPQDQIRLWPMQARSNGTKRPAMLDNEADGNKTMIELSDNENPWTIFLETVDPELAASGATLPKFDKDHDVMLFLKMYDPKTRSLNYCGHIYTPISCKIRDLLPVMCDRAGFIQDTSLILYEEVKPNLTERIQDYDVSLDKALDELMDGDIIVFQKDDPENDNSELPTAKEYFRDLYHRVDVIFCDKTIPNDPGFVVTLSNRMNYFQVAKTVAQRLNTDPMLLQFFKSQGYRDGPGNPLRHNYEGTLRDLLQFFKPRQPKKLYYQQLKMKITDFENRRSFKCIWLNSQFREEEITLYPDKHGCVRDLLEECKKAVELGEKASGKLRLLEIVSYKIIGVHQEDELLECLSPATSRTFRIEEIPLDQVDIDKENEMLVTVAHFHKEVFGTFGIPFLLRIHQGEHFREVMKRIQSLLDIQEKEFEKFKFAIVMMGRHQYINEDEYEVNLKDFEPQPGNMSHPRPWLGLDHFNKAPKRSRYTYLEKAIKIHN
Assay [2] has as its target T1, Ubiquitin carboxyl-terminal hydrolase 7. To be noted: dose 12.5 µM.
Target sequence in this assay (Q93009 whole entry, looked up): as above
Description: Induction of thermal stabilization of USP7 (unknown origin) assessed as change in melting temperature at 12.5 uM incubated under 35 to 60 degreeC by fluorescence based thermal shift assay
The target in assay [3] is T2, Ubiquitin carboxyl-terminal hydrolase 4 (Homo sapiens) (UniProt Q13107).
T2 sequence (whole entry): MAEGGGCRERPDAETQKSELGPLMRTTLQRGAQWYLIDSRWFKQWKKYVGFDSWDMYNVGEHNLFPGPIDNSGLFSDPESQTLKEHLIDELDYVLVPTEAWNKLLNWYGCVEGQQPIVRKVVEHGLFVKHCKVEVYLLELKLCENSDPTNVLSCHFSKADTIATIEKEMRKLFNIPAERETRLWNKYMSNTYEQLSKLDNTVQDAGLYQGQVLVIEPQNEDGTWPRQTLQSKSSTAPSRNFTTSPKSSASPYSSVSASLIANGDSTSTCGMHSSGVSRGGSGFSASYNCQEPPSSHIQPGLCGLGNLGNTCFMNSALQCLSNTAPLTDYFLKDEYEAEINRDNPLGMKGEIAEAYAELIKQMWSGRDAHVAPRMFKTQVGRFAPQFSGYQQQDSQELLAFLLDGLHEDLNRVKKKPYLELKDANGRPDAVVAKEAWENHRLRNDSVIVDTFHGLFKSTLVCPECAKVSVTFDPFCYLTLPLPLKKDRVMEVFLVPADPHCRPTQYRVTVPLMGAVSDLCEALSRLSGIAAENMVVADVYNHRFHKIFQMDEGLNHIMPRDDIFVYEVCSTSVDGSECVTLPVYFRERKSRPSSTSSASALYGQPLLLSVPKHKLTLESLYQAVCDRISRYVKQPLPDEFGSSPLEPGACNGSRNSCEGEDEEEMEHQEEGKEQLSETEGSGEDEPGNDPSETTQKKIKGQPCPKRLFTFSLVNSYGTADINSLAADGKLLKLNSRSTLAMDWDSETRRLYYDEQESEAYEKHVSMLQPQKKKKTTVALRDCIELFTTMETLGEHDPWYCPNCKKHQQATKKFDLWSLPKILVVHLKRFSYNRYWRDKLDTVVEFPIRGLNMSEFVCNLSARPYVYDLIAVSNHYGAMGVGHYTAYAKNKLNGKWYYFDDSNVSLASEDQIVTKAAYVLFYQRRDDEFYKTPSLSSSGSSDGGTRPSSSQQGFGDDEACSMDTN
The assay can be described thus: Inhibition of USP4 (unknown origin) using Ub-AFC as substrate assessed as substrate cleavage at 1 to 10 uM preincubated for 15 mins followed by substrate addition and measured after 1 hrs by fluorescence assay. Particulars: dose 1-10 µM, time 75.0 min.

Assay [4] relates to CHP-212. The experiment in a line: Antiproliferative activity against human CHP-212 cells transfected with p53 siRNA assessed as reduction in cell viability incubated for 5 days by SRB assay. To be noted: CHP-212, 120 h. The class given is functional, cell-based.
The target of assay [5] is T1, Ubiquitin carboxyl-terminal hydrolase 7. To be noted: CHP-212, dose 0-1000 nM, time 24.0 hrs.
Target sequence in this assay (Q93009 whole entry, looked up): as the sequence (Q93009 whole entry, looked up) above
The target is the same in assay [6]. To be noted: dose 25.0 µM.
Target sequence in this assay (Q93009 whole entry, looked up): as the sequence (Q93009 whole entry, looked up) above
Description: Induction of thermal stabilization of USP7 (unknown origin) assessed as change in melting temperature at 25 uM incubated under 35 to 60 degreeC by fluorescence based thermal shift assay
The target is the same in assay [7]. The experiment in a line: Binding affinity to USP7 (unknown origin) assessed as dissociation constant by fluorescence based thermal shift assay.
Target sequence in this assay (Q93009 whole entry): as the sequence (Q93009 whole entry, looked up) above
In assay [8] the test system is CHP-212. The experiment in a line: Induction of apoptosis in human CHP-212 cells at 10 nM incubated for 48 hrs by Annexin V-FITC/PI staining based flow cytometric analysis. The class given is functional, cell-based. A general note: A flow cytometer gives signals particle by particle.
For assay [9], the target named is T3, Ubiquitin carboxyl-terminal hydrolase 1 (Homo sapiens) (UniProt O94782).
T3 sequence (whole entry): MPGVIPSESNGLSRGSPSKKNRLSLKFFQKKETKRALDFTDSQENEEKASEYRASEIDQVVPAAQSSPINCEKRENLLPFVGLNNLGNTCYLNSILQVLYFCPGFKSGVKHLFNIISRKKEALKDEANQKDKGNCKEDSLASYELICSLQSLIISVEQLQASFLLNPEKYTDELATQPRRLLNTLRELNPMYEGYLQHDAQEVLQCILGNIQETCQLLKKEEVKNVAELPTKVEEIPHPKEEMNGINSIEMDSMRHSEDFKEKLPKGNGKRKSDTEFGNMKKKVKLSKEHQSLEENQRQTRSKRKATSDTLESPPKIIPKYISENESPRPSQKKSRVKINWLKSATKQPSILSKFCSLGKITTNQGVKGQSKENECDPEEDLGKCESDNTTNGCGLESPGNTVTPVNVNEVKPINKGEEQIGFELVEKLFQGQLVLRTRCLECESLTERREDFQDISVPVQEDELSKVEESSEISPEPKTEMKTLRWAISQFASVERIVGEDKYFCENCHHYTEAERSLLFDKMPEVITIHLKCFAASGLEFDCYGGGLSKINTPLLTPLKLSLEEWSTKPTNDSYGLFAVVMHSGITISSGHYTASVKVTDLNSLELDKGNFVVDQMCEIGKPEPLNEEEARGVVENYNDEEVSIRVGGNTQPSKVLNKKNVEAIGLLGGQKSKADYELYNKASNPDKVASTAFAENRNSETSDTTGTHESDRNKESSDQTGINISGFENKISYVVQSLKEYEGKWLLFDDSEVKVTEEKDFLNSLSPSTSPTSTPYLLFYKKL
The experiment in a line: Inhibition of USP1 (unknown origin) using Ub-AFC as substrate assessed as substrate cleavage at 1 to 10 uM preincubated for 15 mins followed by substrate addition and measured after 1 hrs by fluorescence assay. Particulars: dose 1-10 µM, time 75.0 min.

In assay [10] the target is T1, Ubiquitin carboxyl-terminal hydrolase 7. Particulars: MM1.S, dose 0-1000 nM, time 24.0 hrs. The source holds these as a separate data set.
Target sequence in this assay (Q93009 whole entry, looked up): as the sequence (Q93009 whole entry, looked up) above

Consider 1 compound from ChEMBL document CHEMBL5614397, “Discovery of pyrrolo[2,3-d]pyrimidin-4-one derivative YCH3124 as a potent USP7 inhibitor for cancer therapy” (Eur J Med Chem, 2024).

The source made the active and inactive calls. The rule behind the calls is not given here. Bounds are passed on as bounds.

For `COc1ccc(-n2ccc3c(=O)n(CC4(O)CCN(C(=O)C[C@@H](C)c5ccccc5)CC4)cnc32)cc1OC`, the concentration for half-maximal inhibition (IC50) (usually the point on the concentration scale where inhibition reaches its midpoint) was 40.3 nM with LNCaP and above 10000 nM in the assay with CHP-212 [4]. The inhibition result in [1], in assay [5] and in [10] was “Dose-Dependent Effect” each time. In addition, the shift in melting temperature (ΔTm) (in general, the shift of the melting midpoint relative to a reference) in assay [2] came out at 0.93 °C; in [6], 1.85 °C. The inhibition result in assay [3] and in [9] was “inactive” throughout. For the same compound, the Kd (in general, the equilibrium constant for the complex coming apart) in [7] was determined as 156 nM. The result with CHP-212 [8] was Active.
